The source of these data is BindingDB's records for doi:10.1111/j.1432-1033.1991.tb16455.x (Georg-August-University, 1991).

Square brackets hold non-standard residues; d marks the D form. Peptide text beside a SMILES is read from it. ξ: configuration not given here. Ile(3ξ) = CCC(C)[C@H](N)C(=O)O Where only a bound is given, the exact number is not on record here.

This experiment deals with T1, Pituitary adenylate cyclase-activating polypeptide (Rattus norvegicus, UniProt P13589).
T1 sequence (P13589 whole entry): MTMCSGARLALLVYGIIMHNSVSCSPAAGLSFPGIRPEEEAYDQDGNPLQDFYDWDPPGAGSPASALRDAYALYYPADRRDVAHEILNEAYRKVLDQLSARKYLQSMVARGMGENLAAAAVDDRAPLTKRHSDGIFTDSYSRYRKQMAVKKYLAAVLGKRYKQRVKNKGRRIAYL
For orientation: Ki means a measure of affinity in units of concentration, obtained from inhibition or displacement. A low value points to higher affinity. `Nc1nc2c(ncn2[C@@H]2O[C@H](COP(=O)(O)OP(=O)(O)OP(=O)(O)O)C(O)C2O)c(=O)[nH]1` (stereo partly specified) [+ 1 mM GTP] came in with a Ki of 600 nM.
To `CC[C@H](C)[C@H](NC(=O)[C@H](CO)NC(=O)[C@H](CC(N)=O)NC(=O)[C@H](CC(C)C)NC(=O)[C@H](Cc1ccc(O)cc1)NC(=O)[C@H](CCCCN)NC(=O)[C@H](CCCCN)NC(=O)[C@@H](NC(=O)[C@H](C)NC(=O)[C@H](CCSC)NC(=O)[C@H](CCC(N)=O)NC(=O)[C@H](CCCCN)NC(=O)[C@H](CCCN=C(N)N)NC(=O)[C@H](CC(C)C)NC(=O)[C@H](CCCN=C(N)N)NC(=O)[C@@H](NC(=O)[C@H](Cc1ccc(O)cc1)NC(=O)[C@H](CC(N)=O)NC(=O)[C@H](CC(=O)O)NC(=O)[C@@H](NC(=O)[C@H](Cc1ccccc1)NC(=O)[C@@H](NC(=O)[C@H](C)NC(=O)[C@H](CC(=O)O)NC(=O)[C@H](CO)NC(=O)[C@@H](N)Cc1cnc[nH]1)C(C)C)[C@@H](C)O)[C@@H](C)O)C(C)C)C(=O)N[C@@H](CC(C)C)C(=O)N[C@@H](CC(N)=O)C(=O)O` [CAS_37221-79-7] belongs 1000 nM; to `Nc1nc2c(ncn2C2OC(COP(=O)(O)OP(=O)(O)OP(=O)(O)S)C(O)C2O)c(=O)[nH]1` (stereo unspecified) [CAS_444121], 40 nM.
Consider `Nc1nc2c(ncn2[C@H]2O[C@@H](COP(=O)(O)O)[C@H](O)[C@@H]2O)c(=O)[nH]1` [NSC_6804], for which the Ki is more than 10000 nM.
As to `Nc1nc2c(ncn2C2OC(COP(O)(=S)OP(=O)(O)O)C(O)C2O)c(=O)[nH]1` (stereo unspecified) [NSC_196042], the Ki was found to be 340 nM.
The same measure for `CC[C@H](C)[C@H](NC(=O)CNC(=O)[C@H](CC(=O)O)NC(=O)[C@H](CO)NC(=O)[C@@H](N)Cc1cnc[nH]1)C(=O)N[C@@H](Cc1ccccc1)C(=O)N[C@H](C(=O)N[C@@H](CC(=O)O)C(=O)N[C@@H](CO)C(=O)N[C@@H](Cc1ccc(O)cc1)C(=O)N[C@@H](CO)C(=O)N[C@@H](CCCN=C(N)N)C(=O)N[C@@H](Cc1ccc(O)cc1)C(=O)N[C@@H](CCCN=C(N)N)C(=O)N[C@@H](CCCCN)C(=O)N[C@@H](CCC(N)=O)C(=O)N[C@@H](CCSC)C(=O)N[C@@H](C)C(=O)N[C@H](C(=O)N[C@@H](CCCCN)C(=O)N[C@@H](CCCCN)C(=O)N[C@@H](Cc1ccc(O)cc1)C(=O)N[C@@H](CC(C)C)C(N)=O)C(C)C)[C@@H](C)O` [PACAP(1-23)]: 1000 nM; for `CC[C@H](C)[C@H](NC(=O)CNC(=O)[C@H](CCC(=O)O)NC(=O)[C@H](CO)NC(=O)[C@@H](N)Cc1cnc[nH]1)C(=O)N[C@@H](Cc1ccccc1)C(=O)N[C@H](C(=O)N[C@@H](CC(=O)O)C(=O)N[C@@H](CO)C(=O)N[C@@H](Cc1ccc(O)cc1)C(=O)N[C@@H](CO)C(=O)N[C@@H](CCCNC(=N)N)C(=O)N[C@@H](Cc1ccc(O)cc1)C(=O)N[C@@H](CCCNC(=N)N)C(=O)N[C@@H](CCCCN)C(=O)N[C@@H](CCC(N)=O)C(=O)N[C@@H](CCSC)C(=O)N[C@@H](C)C(=O)N[C@H](C(=O)N[C@@H](CCCCN)C(=O)N[C@@H](CCCCN)C(=O)N[C@@H](Cc1ccc(O)cc1)C(=O)N[C@@H](CC(C)C)C(=O)N[C@@H](C)C(=O)N[C@@H](C)C(=O)N[C@H](C(=O)N[C@@H](CC(C)C)C(N)=O)C(C)C)C(C)C)[C@@H](C)O` [PACAP(1-27)]: 4.7 nM.
On to `CCC(C)[C@H](NC(=O)CNC(=O)[C@H](CC(=O)O)NC(=O)[C@H](CO)NC(=O)[C@@H](N)Cc1cnc[nH]1)C(=O)N[C@@H](Cc1ccccc1)C(=O)N[C@H](C(=O)N[C@@H](CC(=O)O)C(=O)N[C@@H](CO)C(=O)N[C@@H](Cc1ccc(O)cc1)C(=O)N[C@@H](CO)C(=O)N[C@@H](CCCN=C(N)N)C(=O)N[C@@H](Cc1ccc(O)cc1)C(=O)N[C@@H](CCCN=C(N)N)C(=O)N[C@@H](CCCCN)C(=O)N[C@@H](CCC(N)=O)C(=O)N[C@@H](CCSC)C(=O)N[C@@H](C)C(=O)N[C@H](C(=O)N[C@@H](CCCCN)C(=O)N[C@@H](CCCCN)C(=O)N[C@@H](Cc1ccc(O)cc1)C(=O)N[C@@H](CC(C)C)C(=O)N[C@@H](C)C(=O)N[C@@H](C)C(=O)N[C@H](C(=O)N[C@@H](CC(C)C)C(=O)NCC(=O)N[C@@H](CCCCN)C(=O)N[C@@H](CCCN=C(N)N)C(=O)N[C@@H](Cc1ccc(O)cc1)C(=O)N[C@@H](CCCCN)C(=O)N[C@@H](CCC(N)=O)C(=O)N[C@@H](CS)C(N)=O)C(C)C)C(C)C)[C@@H](C)O` (stereo partly specified) [PACAP(1-33,Cys34)], for which the affinity, expressed as Ki, was 6.4 nM.
The same measure for `CCC(C)[C@H](NC(=O)CNC(=O)[C@@H](N)CC(=O)O)C(=O)N[C@@H](Cc1ccccc1)C(=O)N[C@H](C(=O)N[C@@H](CC(=O)O)C(=O)N[C@@H](CO)C(=O)N[C@@H](Cc1ccc(O)cc1)C(=O)N[C@@H](CO)C(=O)N[C@@H](CCCN=C(N)N)C(=O)N[C@@H](Cc1ccc(O)cc1)C(=O)N[C@@H](CCCN=C(N)N)C(=O)N[C@@H](CCCCN)C(=O)N[C@@H](CCC(N)=O)C(=O)N[C@@H](CCSC)C(=O)N[C@@H](C)C(=O)N[C@H](C(=O)N[C@@H](CCCCN)C(=O)N[C@@H](CCCCN)C(=O)N[C@@H](Cc1ccc(O)cc1)C(=O)N[C@@H](CC(C)C)C(=O)N[C@@H](C)C(=O)N[C@@H](C)C(N)=O)C(C)C)[C@@H](C)O` (stereo partly specified) [PACAP(3-25)] (H-DG[Ile(3ξ)]FTDSYSRYRKQMAVKKYLAA-NH2): 1000 nM.
For `CC[C@H](C)[C@H](NC(=O)CNC(=O)[C@H](CC(=O)O)NC(=O)[C@H](CO)NC(=O)[C@@H](N)Cc1cnc[nH]1)C(=O)N[C@@H](Cc1ccccc1)C(=O)N[C@H](C(=O)N[C@@H](CC(=O)O)C(=O)N[C@@H](CO)C(=O)N[C@@H](Cc1ccc(O)cc1)C(=O)N[C@@H](CO)C(=O)N[C@@H](CCCNC(=N)N)C(=O)N[C@@H](Cc1ccc(O)cc1)C(=O)N[C@@H](CCCNC(=N)N)C(=O)N[C@@H](CCCCN)C(=O)N[C@@H](CCC(N)=O)C(=O)N[C@@H](CCSC)C(=O)N[C@@H](C)C(=O)N[C@H](C(=O)N[C@@H](CCCCN)C(=O)N[C@@H](CCCCN)C(=O)N[C@@H](Cc1ccc(O)cc1)C(=O)N[C@@H](CC(C)C)C(=O)N[C@@H](C)C(=O)N[C@@H](C)C(=O)N[C@H](C(=O)N[C@@H](CC(C)C)C(=O)NCC(=O)N[C@@H](CCCCN)C(=O)N[C@@H](CCCNC(=N)N)C(=O)N[C@@H](Cc1ccc(O)cc1)C(=O)N[C@@H](CCCCN)C(=O)N[C@@H](CCC(N)=O)C(=O)N[C@@H](CCCNC(=N)N)C(=O)N[C@H](C(=O)N[C@@H](CCCCN)C(=O)N[C@@H](CC(N)=O)C(=O)N[C@@H](CCCCN)C(N)=O)C(C)C)C(C)C)C(C)C)[C@@H](C)O` [PACAP], the affinity, expressed as Ki, was 1.9 nM.
For “H-HSDGIFTDSYSRYRKQMAVKKYLNSILN-NH2 [PACAP(1-23),VIP(24-28)]”, the Ki came to 3.1 nM.
